In patent publication US12653815B2, “Luminally-acting N-(piperidin-4-yl)benzamide derivatives” (Takeda Pharmaceutical Company Limited, priority 2020, dated 2026):

Each compound was assayed against T1, human 5-HT4(b) receptor (Homo sapiens, UniProt Q13639) (assay: 5-HT4(b) agonist assay (cAMP accumulation)). Conditions: CHO-K1 cells overexpressing full-length human 5-HT4(b) receptor; cAMP accumulation after 30 minutes at room temperature; 1 μM 5-HT as 100% activity.
T1 construct: overexpressing the full-length human 5-HT4(b) receptor with an N-terminal FLAG tag; FLAG (N); host or cells: CHO-K1
T1 sequence (Q13639 whole entry): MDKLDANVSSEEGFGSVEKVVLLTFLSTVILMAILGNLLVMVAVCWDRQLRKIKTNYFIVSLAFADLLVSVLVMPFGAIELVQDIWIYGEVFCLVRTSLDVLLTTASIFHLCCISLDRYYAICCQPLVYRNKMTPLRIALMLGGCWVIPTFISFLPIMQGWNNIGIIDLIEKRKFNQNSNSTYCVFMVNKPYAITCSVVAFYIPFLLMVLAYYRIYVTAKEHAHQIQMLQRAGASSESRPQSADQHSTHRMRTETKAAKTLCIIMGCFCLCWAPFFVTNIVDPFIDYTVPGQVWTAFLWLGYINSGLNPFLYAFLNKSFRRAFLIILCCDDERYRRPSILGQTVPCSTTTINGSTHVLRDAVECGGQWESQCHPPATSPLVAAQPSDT
Assay type: cell-based
Outline: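 FLAG-tagged full-length human 5-HT4(b) in CHO-K1 cells (frozen assay-ready), suspended in Krebs Ringer buffer; compound incubated 30 min at room temperature in the dark. cAMP read by HTRF (anti-cAMP antibody/d2-cAMP tracer, 1 h). Normalized to 1 μM 5-HT (100%) and DMSO (0%); EC50 reported.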

Compound | EC50 [nM]
COc1cc(N)c(Cl)cc1C(=O)N[C@@H]1CCN(CCCCCC(=O)NCCCCCC(=O)NC[C@H](O)[C@@H](O)[C@H](O)[C@H](O)CO)C[C@@H]1OC [Example 3, 4-amino-5-chloro-2-methoxy-N-((3S,4R)-3-methoxy-1-(6-oxo-6-((6-oxo-6-(((2S,3R,4R,5R)-2,3,4,5,6-pentahydroxyhexyl)amino)hexyl)amino)hexyl)piperidinyl)benzamide] | 22.3
Nc1c(Cl)cc(C(=O)NCC2CCN(CC3CCN(C(=O)CCCCCCCCC(=O)NC[C@H](O)[C@@H](O)[C@H](O)[C@H](O)CO)CC3)CC2)c2c1CCO2 [Example 39, 4-amino-5-chloro-N-((1-((1-(10-oxo-10-(((2S,3R,4R,5R)-2,3,4,5,6-pentahydroxyhexyl)amino)decanoyl)piperidin-4-yl)methyl)piperidin-4-yl)methyl)-2,3-dihydrobenzofuran-7-carboxamide] | 1.2
COc1cc(N)c(Cl)cc1C(=O)N[C@@H]1CCN(CCCCCC(=O)N(C)C2CCN(CCCCCCCC(=O)NC[C@H](O)[C@@H](O)[C@H](O)[C@H](O)CO)CC2)C[C@@H]1OC [Example 10, 4-amino-5-chloro-2-methoxy-N-((3S,4R)-3-methoxy-1-(6-(methyl(1-(8-oxo-8-(((2S,3R,4R,5R)-2,3,4,5,6-pentahydroxyhexyl)amino)octyl)piperidin-4-yl)amino)-6-oxohexyl)piperidin-4-yl)benzamide] | 26.1
